Data as given in US20250230193A1, “CYCLIC COMPOUND HAVING SELECTIVE KRAS INHIBITORY EFFECT ON HRAS AND NRAS” (CHUGAI SEIYAKU KABUSHIKI KAISHA, priority 2022, published 2025).
Where a SMILES comes first, the peptide text is derived from it. Bridges are numbered along the chain shown (N, C = ends). [ ]: non-standard residue; d: D form. The star is where a group is joined. hPhe(3-Cl-4-CF3) = N[C@@H](CCc1ccc(C(F)(F)F)c(Cl)c1)C(=O)O; NPrPhe(4-CF3) = CCCN[C@@H](Cc1ccc(C(F)(F)F)cc1)C(=O)O; NMeGly(cPent) = CN[C@H](C(=O)O)C1CCCC1; NMeD = CN[C@@H](CC(=O)O)C(=O)O; NMeL = CN[C@@H](CC(C)C)C(=O)O; Morpholide = C1CN(*)CCO1; Ac5c = NC1(C(=O)O)CCCC1; NEtG = CCNCC(=O)O; Sar = CNCC(=O)O

Columns and labels:
[1] = biological target: GDP-bound HRAS wild-type protein (Homo sapiens, UniProt P01112); experiment: Binding to HRAS by surface plasmon resonance (SPR), Single Cycle Kinetics; conditions: SPR; for HRAS/KRAS (ratio of KD value for HRAS to KD value for KRAS) / HRAS/KRAS (ratio of KD value with respect to HRAS to KD value with respect to KRAS): GDP-bound HRAS wild-type vs GDP-bound KRAS wild-type
[2] = biological target: GDP-bound NRAS wild-type protein (Homo sapiens, UniProt P01111); experiment: Binding to NRAS by surface plasmon resonance (SPR), Single Cycle Kinetics; conditions: SPR; for NRAS/KRAS (ratio of KD value for NRAS to KD value for KRAS) / NRAS/KRAS (ratio of KD value with respect to NRAS to KD value with respect to KRAS): GDP-bound NRAS wild-type vs GDP-bound KRAS wild-type
Chain of GDP-bound NRAS wild-type protein (P01111 whole entry): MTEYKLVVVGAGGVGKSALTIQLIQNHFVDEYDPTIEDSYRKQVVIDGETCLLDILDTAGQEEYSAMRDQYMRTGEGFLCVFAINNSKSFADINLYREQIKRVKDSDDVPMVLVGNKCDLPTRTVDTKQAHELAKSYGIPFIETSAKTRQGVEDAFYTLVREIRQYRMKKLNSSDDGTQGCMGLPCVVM

Chain of GDP-bound HRAS wild-type protein (P01112 whole entry): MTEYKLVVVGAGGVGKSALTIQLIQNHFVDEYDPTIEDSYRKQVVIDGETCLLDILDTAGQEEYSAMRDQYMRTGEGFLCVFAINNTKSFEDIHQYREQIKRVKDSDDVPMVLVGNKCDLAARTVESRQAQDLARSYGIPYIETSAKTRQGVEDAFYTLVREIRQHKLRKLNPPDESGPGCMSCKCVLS

SMILES: CCO[C@@H]1C[C@H]2C(=O)NC3(CC(C)(C)C3)C(=O)N(C)[C@@H](C3CCCC3)C(=O)N(C)[C@H](C(=O)N(C)C)CC(=O)N(C)[C@@H](CC(C)C)C(=O)N[C@@H]([C@@H](C)CC)C(=O)N(C)CC(=O)N(C)[C@H]3C/C=C\CCN(C3=O)[C@@H](Cc3ccc(C(F)(F)F)cc3)C(=O)N(C)CC(=O)N[C@@H](CCc3ccc(C(F)(F)F)c(F)c3)C(=O)N2C1 [PP1931]
- HRAS/KRAS (ratio of KD value for HRAS to KD value for KRAS) ([1]; KD ratio): B (a compound having 3 or more and less than 10 is denoted as B)
- NRAS/KRAS (ratio of KD value for NRAS to KD value for KRAS) ([2]; KD ratio): A (a compound having 10 or more and less than 20 is denoted as A)

SMILES: CCC[C@H]1C(=O)N[C@@H]([C@@H](C)CC)C(=O)N(C2CC2)CC(=O)N(C)[C@H]2C/C=C\CCN(C2=O)[C@@H](Cc2ccc(C(F)(F)F)cc2)C(=O)N(C)CC(=O)N[C@@H](CCc2ccc(C(F)(F)F)c(OC)c2)C(=O)N2C[C@H](OCC)C[C@H]2C(=O)N(C)C2(CCC2)C(=O)N(C)[C@@H](C2CCCC2)C(=O)N(C)[C@H](C(=O)N(C)C)CC(=O)N1C [PP2316, (2S,8S,12R,14S,20S,23S,27S,30S,36S,38Z)-20-cyclopentyl-32-cyclopropyl-12-ethoxy-8-[2-[3-methoxy-4-(trifluoromethyl)phenyl]ethyl]-N,N,4,16,19,22,26,35-octamethyl-30-[(1S)-1-methylpropyl]-3,6,9,15,18,21,25,28,31,34,42-undecaoxo-27-propyl-2-[[4-(trifluoromethyl)phenyl]methyl]spiro[1,4,7,10,16,19,22,26,29,32,35-undecazatricyclo[34.5.1.0^10,14]dotetracont-38-ene-17,1′-cyclobutane]-23-carboxamide]
- HRAS/KRAS (ratio of KD value with respect to HRAS to KD value with respect to KRAS) [1]: A (a compound having 10 or more and less than 20 is denoted as A)
- NRAS/KRAS (ratio of KD value with respect to NRAS to KD value with respect to KRAS) [2]: A (a compound having 10 or more and less than 20 is denoted as A)

SMILES: CCC[C@@H]1C[C@H]2C(=O)NC3(CC(C)(C)C3)C(=O)N(C)[C@@H](C3CCCC3)C(=O)N(C)[C@H](C(=O)N(C)C)CC(=O)N(C)[C@@H](CCC)C(=O)N[C@@H]([C@@H](C)CC)C(=O)N(C)CC(=O)N(C)[C@H]3C/C=C\CCN(C3=O)[C@@H](Cc3ccc(C)cc3)C(=O)N(C)CC(=O)N[C@@H](CCc3ccc(C(F)(F)F)c(Cl)c3)C(=O)N2C1 [PP2214]
- HRAS/KRAS (ratio of KD value with respect to HRAS to KD value with respect to KRAS) [1]: A (a compound having 10 or more and less than 20 is denoted as A)
- NRAS/KRAS (ratio of KD value with respect to NRAS to KD value with respect to KRAS) [2]: A (a compound having 10 or more and less than 20 is denoted as A)

SMILES: CCO[C@@H]1C[C@H]2C(=O)NC3(CCC3)C(=O)N(C)[C@@H](C3CCCC3)C(=O)N(C)[C@H](C(=O)N(C)C)CC(=O)N(C)[C@@H](CC)C(=O)N[C@@H]([C@@H](C)CC)C(=O)N(C)CC(=O)N(C)[C@H]3CCCCCN(C3=O)[C@@H](Cc3ccc(F)c(Cl)c3)C(=O)N(C)CC(=O)N[C@@H](CCc3cc(F)c(C(F)(F)F)c(F)c3)C(=O)N2C1 [PP0909]
- HRAS/KRAS (ratio of KD value with respect to HRAS to KD value with respect to KRAS) ([1]; KD ratio): B (a compound having 3 or more and less than 10 is denoted as B)
- NRAS/KRAS (ratio of KD value with respect to NRAS to KD value with respect to KRAS) ([2]; KD ratio): B (a compound having 3 or more and less than 10 is denoted as B)

SMILES: CCCN1C(=O)CN(C)C(=O)CN(CC)C(=O)[C@H]([C@@H](C)CC)NC(=O)[C@H](CC(C)C)N(C)C(=O)C[C@@H](C(=O)N2CCOCC2)N(C)C(=O)[C@H](C2CCCC2)N(C)C(=O)C2(CCCC2)NC(=O)[C@@H]2CCCN2C(=O)[C@H](CCc2ccc(C(F)(F)F)c(Cl)c2)NC(=O)CN(C)C(=O)[C@@H]1Cc1ccc(C(F)(F)F)cc1 [PP0145] ([NMeL]I[NEtG][Sar][NPrPhe(4-CF3)][Sar][hPhe(3-Cl-4-CF3)]P[Ac5c][NMeGly(cPent)][NMeD]-Morpholide; lactam N-11)
- HRAS/KRAS (ratio of KD for GDP-bound HRAS wild-type to KD for KRAS) ([1]; KD ratio HRAS/KRAS): B (a compound having 3 or more and less than 10 is denoted as B)
- NRAS/KRAS (ratio of KD for GDP-bound NRAS wild-type to KD for KRAS) ([2]; KD ratio NRAS/KRAS): B (a compound having 3 or more and less than 10 is denoted as B)

SMILES: CCO[C@@H]1C[C@H]2C(=O)NC3(CCC3)C(=O)N(C)[C@@H](C3CCCC3)C(=O)N(C)[C@H](C(=O)N(C)C)CC(=O)N(C)[C@@H](CC(C)C)C(=O)N[C@@H]([C@@H](C)CC)C(=O)N3CC[C@H]3C(=O)N(C)[C@H]3CC(C)=C(C)CN(C3=O)[C@@H](Cc3ccc(C(F)(F)F)cc3)C(=O)N(C)CC(=O)N[C@@H](CCc3cc(F)c(C(F)(F)F)c(F)c3)C(=O)N2C1 [PP1047]
- HRAS/KRAS (ratio of KD value with respect to HRAS to KD value with respect to KRAS) ([1]; KD ratio): C (A compound having a KD ratio of 0.1 or more and less than 3 is denoted as C)
- NRAS/KRAS (ratio of KD value with respect to NRAS to KD value with respect to KRAS) ([2]; KD ratio): C (A compound having a KD ratio of 0.1 or more and less than 3 is denoted as C)

SMILES: CC[C@H](C)[C@@H]1NC(=O)[C@H](CCOC)N(C)C(=O)C[C@@H](C(=O)N(C)CC)N(C)C(=O)[C@H](C2CCCC2)N(C)C(=O)C2(CC(C)(C)C2)NC(=O)[C@@H]2C[C@H](C)CN2C(=O)[C@H](CCc2cc(F)c(C(F)(F)F)c(F)c2)NC(=O)CN(C)C(=O)[C@H](Cc2ccc(C(F)(F)F)cc2)N2CC/C=C\C[C@@H](C2=O)N(C)C(=O)CN(C)C1=O [PP1972]
- HRAS/KRAS (ratio of KD value for HRAS to KD value for KRAS) ([1]; KD ratio): A (a compound having 10 or more and less than 20 is denoted as A)
- NRAS/KRAS (ratio of KD value for NRAS to KD value for KRAS) ([2]; KD ratio): A (a compound having 10 or more and less than 20 is denoted as A)
